{"source": "patent US9149038B2", "about": "“4-amino-6-(heterocyclic)picolinates and 6-amino-2-(heterocyclic)pyrimidine-4-carboxylates and their use as herbicides” (Dow AgroSciences LLC, priority 2013, dated 2015)", "key": {"[1]": {"system": "Key Grass and Sedge Weeds as well as Grass Crops", "assay": "Post-Emergent Test II: postemergent herbicidal activity, visual rating after 14 d (Table 8)", "format": "in vivo", "details": "post-emergence, 336 h; for pest or weed control at 35 g/ha: 35 g ai/ha; for pest or weed control at 70 g/ha: 70 g ai/ha; for pest or weed control at 140 g/ha: 140 g ai/ha", "method_in_brief": "(§1)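 Track-sprayed young seedlings (first/second true leaf) at 187 L/ha across a 2-fold rate series from the high rate down to 1/16×. Kept in greenhouse at 23-29° C day, subirrigated. Injury rated by eye after 14 d, 0 = no injury, 100 = complete kill.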"}, "[2]": {"system": "Key Broadleaf Weed and Crop Species", "assay": "Post-Emergent Test II: postemergent herbicidal activity, visual rating after 14 d (Table 7)", "format": "in vivo", "details": "post-emergence, 336 h; for pest or weed control at 35 g/ha: 35 g ai/ha; for pest or weed control at 70 g/ha: 70 g ai/ha; for pest or weed control at 140 g/ha: 140 g ai/ha", "method_in_brief": "as §1"}, "[3]": {"details": "barnyardgrass (Echinochloa crus-galli), read-out: Visual Growth Reduction (%) 14 Days After Application ECHCG"}, "[4]": {"details": "giant foxtail (Setaria faberi), read-out: Visual Growth Reduction (%) 14 Days After Application SETFA"}, "[5]": {"details": "maize, corn (Zea mays), read-out: Visual Growth Reduction (%) 14 Days After Application ZEAMX"}, "[6]": {"details": "rice (Oryza sativa), read-out: Visual Growth Reduction (%) 14 Days After Application ORYSA"}, "[7]": {"details": "wheat, spring (Triticum aestivum), read-out: Visual Growth Reduction (%) 14 Days After Application TRZAS"}, "[8]": {"details": "yellow nutsedge (Cyperus esculentus), read-out: Visual Growth Reduction (%) 14 Days After Application CYPES"}, "[9]": {"details": "lambsquarters (Chenopodium album), read-out: Visual Growth Reduction (%) 14 Days After Application CHEAL"}, "[10]": {"details": "oilseed rape, canola (Brassica napus), read-out: Visual Growth Reduction (%) 14 Days After Application BRSNN"}, "[11]": {"details": "redroot pigweed (Amaranthus retroflexus), read-out: Visual Growth Reduction (%) 14 Days After Application AMARE"}, "[12]": {"details": "sunflower (Helianthus annuus), read-out: Visual Growth Reduction (%) 14 Days After Application HELAN"}, "[13]": {"details": "velvetleaf (Abutilon theophrasti), read-out: Visual Growth Reduction (%) 14 Days After Application ABUTH"}, "[14]": {"details": "wild poinsettia (Euphorbia heterophylla), read-out: Visual Growth Reduction (%) 14 Days After Application EPHHL"}}, "note": "Read-outs that look alike come from different tables or passages of the source."}
{"smiles": "Nc1cc(-c2ccc3c(c2F)OC(F)(F)O3)nc(C(=O)O)c1Cl", "note": "[Compound 41]", "values": [{"measurement": "pest or weed control at 35 g/ha", "setting": "[1]; [3]", "result": "75 to 84", "unit": "%"}, {"measurement": "pest or weed control at 70 g/ha", "setting": "[1]; [3]", "result": "85 to 94", "unit": "%"}, {"measurement": "pest or weed control at 140 g/ha", "setting": "[1]; [3]", "result": "95 to 100", "unit": "%"}, {"measurement": "pest or weed control at 35 g/ha", "setting": "[1]; [4]", "result": "75 to 84", "unit": "%"}, {"measurement": "pest or weed control at 70 g/ha", "setting": "[1]; [4]", "result": "85 to 94", "unit": "%"}, {"measurement": "pest or weed control at 140 g/ha", "setting": "[1]; [4]", "result": "85 to 94", "unit": "%"}, {"measurement": "pest or weed control at 35 g/ha", "setting": "[1]; [5]", "result": "60 to 74", "unit": "%"}, {"measurement": "pest or weed control at 70 g/ha", "setting": "[1]; [5]", "result": "75 to 84", "unit": "%"}, {"measurement": "pest or weed control at 140 g/ha", "setting": "[1]; [5]", "result": "75 to 84", "unit": "%"}, {"measurement": "pest or weed control at 35 g/ha", "setting": "[1]; [6]", "result": "0 to 29", "unit": "%"}, {"measurement": "pest or weed control at 70 g/ha", "setting": "[1]; [6]", "result": "0 to 29", "unit": "%"}, {"measurement": "pest or weed control at 140 g/ha", "setting": "[1]; [6]", "result": "0 to 29", "unit": "%"}, {"measurement": "pest or weed control at 35 g/ha", "setting": "[1]; [7]", "result": "30 to 44", "unit": "%"}, {"measurement": "pest or weed control at 70 g/ha", "setting": "[1]; [7]", "result": "30 to 44", "unit": "%"}, {"measurement": "pest or weed control at 140 g/ha", "setting": "[1]; [7]", "result": "45 to 59", "unit": "%"}, {"measurement": "pest or weed control at 35 g/ha", "setting": "[1]; [8]", "result": "0 to 29", "unit": "%"}, {"measurement": "pest or weed control at 70 g/ha", "setting": "[1]; [8]", "result": "0 to 29", "unit": "%"}, {"measurement": "pest or weed control at 140 g/ha", "setting": "[1]; [8]", "result": "0 to 29", "unit": "%"}, {"measurement": "pest or weed control at 35 g/ha", "setting": "[2]; [9]", "result": "85 to 94", "unit": "%"}, {"measurement": "pest or weed control at 70 g/ha", "setting": "[2]; [9]", "result": "85 to 94", "unit": "%"}, {"measurement": "pest or weed control at 140 g/ha", "setting": "[2]; [9]", "result": "85 to 94", "unit": "%"}, {"measurement": "pest or weed control at 35 g/ha", "setting": "[2]; [10]", "result": "60 to 74", "unit": "%"}, {"measurement": "pest or weed control at 70 g/ha", "setting": "[2]; [10]", "result": "75 to 84", "unit": "%"}, {"measurement": "pest or weed control at 140 g/ha", "setting": "[2]; [10]", "result": "75 to 84", "unit": "%"}, {"measurement": "pest or weed control at 35 g/ha", "setting": "[2]; [11]", "result": "95 to 100", "unit": "%"}, {"measurement": "pest or weed control at 70 g/ha", "setting": "[2]; [11]", "result": "95 to 100", "unit": "%"}, {"measurement": "pest or weed control at 140 g/ha", "setting": "[2]; [11]", "result": "95 to 100", "unit": "%"}, {"measurement": "pest or weed control at 35 g/ha", "setting": "[2]; [12]", "result": "0 to 29", "unit": "%"}, {"measurement": "pest or weed control at 70 g/ha", "setting": "[2]; [12]", "result": "60 to 74", "unit": "%"}, {"measurement": "pest or weed control at 140 g/ha", "setting": "[2]; [12]", "result": "60 to 74", "unit": "%"}, {"measurement": "pest or weed control at 35 g/ha", "setting": "[2]; [13]", "result": "60 to 74", "unit": "%"}, {"measurement": "pest or weed control at 70 g/ha", "setting": "[2]; [13]", "result": "75 to 84", "unit": "%"}, {"measurement": "pest or weed control at 140 g/ha", "setting": "[2]; [13]", "result": "75 to 84", "unit": "%"}, {"measurement": "pest or weed control at 35 g/ha", "setting": "[2]; [14]", "result": "95 to 100", "unit": "%"}, {"measurement": "pest or weed control at 70 g/ha", "setting": "[2]; [14]", "result": "95 to 100", "unit": "%"}, {"measurement": "pest or weed control at 140 g/ha", "setting": "[2]; [14]", "result": "95 to 100", "unit": "%"}]}
{"smiles": "Nc1c(Cl)c(C(=O)O)nc(-c2ccc3c(c2F)OC(F)(F)O3)c1Cl", "note": "[Compound 5]", "values": [{"measurement": "pest or weed control at 35 g/ha", "setting": "[1]; [3]", "result": "0 to 29", "unit": "%"}, {"measurement": "pest or weed control at 70 g/ha", "setting": "[1]; [3]", "result": "0 to 29", "unit": "%"}, {"measurement": "pest or weed control at 140 g/ha", "setting": "[1]; [3]", "result": "0 to 29", "unit": "%"}, {"measurement": "pest or weed control at 35 g/ha", "setting": "[1]; [4]", "result": "0 to 29", "unit": "%"}, {"measurement": "pest or weed control at 70 g/ha", "setting": "[1]; [4]", "result": "0 to 29", "unit": "%"}, {"measurement": "pest or weed control at 140 g/ha", "setting": "[1]; [4]", "result": "0 to 29", "unit": "%"}, {"measurement": "pest or weed control at 35 g/ha", "setting": "[1]; [5]", "result": "0 to 29", "unit": "%"}, {"measurement": "pest or weed control at 70 g/ha", "setting": "[1]; [5]", "result": "0 to 29", "unit": "%"}, {"measurement": "pest or weed control at 140 g/ha", "setting": "[1]; [5]", "result": "0 to 29", "unit": "%"}, {"measurement": "pest or weed control at 35 g/ha", "setting": "[1]; [6]", "result": "0 to 29", "unit": "%"}, {"measurement": "pest or weed control at 70 g/ha", "setting": "[1]; [6]", "result": "0 to 29", "unit": "%"}, {"measurement": "pest or weed control at 140 g/ha", "setting": "[1]; [6]", "result": "0 to 29", "unit": "%"}, {"measurement": "pest or weed control at 35 g/ha", "setting": "[1]; [7]", "result": "0 to 29", "unit": "%"}, {"measurement": "pest or weed control at 70 g/ha", "setting": "[1]; [7]", "result": "0 to 29", "unit": "%"}, {"measurement": "pest or weed control at 140 g/ha", "setting": "[1]; [7]", "result": "0 to 29", "unit": "%"}, {"measurement": "pest or weed control at 35 g/ha", "setting": "[1]; [8]", "result": "0 to 29", "unit": "%"}, {"measurement": "pest or weed control at 70 g/ha", "setting": "[1]; [8]", "result": "0 to 29", "unit": "%"}, {"measurement": "pest or weed control at 140 g/ha", "setting": "[1]; [8]", "result": "0 to 29", "unit": "%"}, {"measurement": "pest or weed control at 35 g/ha", "setting": "[2]; [9]", "result": "0 to 29", "unit": "%"}, {"measurement": "pest or weed control at 70 g/ha", "setting": "[2]; [9]", "result": "0 to 29", "unit": "%"}, {"measurement": "pest or weed control at 140 g/ha", "setting": "[2]; [9]", "result": "0 to 29", "unit": "%"}, {"measurement": "pest or weed control at 35 g/ha", "setting": "[2]; [10]", "result": "45 to 59", "unit": "%"}, {"measurement": "pest or weed control at 70 g/ha", "setting": "[2]; [10]", "result": "60 to 74", "unit": "%"}, {"measurement": "pest or weed control at 140 g/ha", "setting": "[2]; [10]", "result": "60 to 74", "unit": "%"}, {"measurement": "pest or weed control at 35 g/ha", "setting": "[2]; [11]", "result": "0 to 29", "unit": "%"}, {"measurement": "pest or weed control at 70 g/ha", "setting": "[2]; [11]", "result": "0 to 29", "unit": "%"}, {"measurement": "pest or weed control at 140 g/ha", "setting": "[2]; [11]", "result": "0 to 29", "unit": "%"}, {"measurement": "pest or weed control at 35 g/ha", "setting": "[2]; [12]", "result": "30 to 44", "unit": "%"}, {"measurement": "pest or weed control at 70 g/ha", "setting": "[2]; [12]", "result": "30 to 44", "unit": "%"}, {"measurement": "pest or weed control at 140 g/ha", "setting": "[2]; [12]", "result": "45 to 59", "unit": "%"}, {"measurement": "pest or weed control at 35 g/ha", "setting": "[2]; [13]", "result": "0 to 29", "unit": "%"}, {"measurement": "pest or weed control at 70 g/ha", "setting": "[2]; [13]", "result": "0 to 29", "unit": "%"}, {"measurement": "pest or weed control at 140 g/ha", "setting": "[2]; [13]", "result": "0 to 29", "unit": "%"}, {"measurement": "pest or weed control at 35 g/ha", "setting": "[2]; [14]", "result": "0 to 29", "unit": "%"}, {"measurement": "pest or weed control at 70 g/ha", "setting": "[2]; [14]", "result": "0 to 29", "unit": "%"}, {"measurement": "pest or weed control at 140 g/ha", "setting": "[2]; [14]", "result": "0 to 29", "unit": "%"}]}
